Test results taken from patent US20150119251A1, “AGRICULTURAL PLANT-PROTECTING AGENTS CONTAINING DIPEPTIDE DERIVATIVE AS ACTIVE INGREDIENT” (REPUBLIC OF KOREA (RURAL DEVELOPMENT ADMINISTRATION), priority 2012, published 2015).
Square brackets hold non-standard residues; d marks the D form. Peptide text beside a SMILES is read from it. * marks the point of attachment. Trt = c1ccc(C(c2ccccc2)(c2ccccc2)*)cc1; Boc = CC(C)(C)OC(=O)*; OBn = c1ccc(CO*)cc1; OAll = C=CCO*

How the values were obtained:
[1] = test system: pepper phytophthora blight (Phytopthora capsici); assay: Suppression of pepper phytophthora blight on leaves; type: in vivo; settings: for Lesion outbreak rate: pepper leaves; for Effect on suppressing the outbreak of pepper phytophthora blight or bacterial rot as compared with the non-treated control group: directly sprayed to the leaves; for Lesion formation, pepper phytophthora test: drench-treated, 1.0 or 10.0 ppm
Description: (§1) The peppers were raised in the same method as Example 3, and then, the test compounds were dissolved in 20% methanol to make a stock solution, and a stock was diluted to the concentrations of 0.1, 1.0, and 10.0 ppm. The test solutions were sprayed on the leaves or drench-treated on the leaves. After 7 days, the pathogen of plant bacterial rot (Pectobacterium carotovorum SCC1) was cultured in a TSA medium for 27 hours, and then, wetted on an 8 mm diameter paper disc in the concentration of 10^8 cfu/mL. The paper disc was located in the center of the leaves that were cut roundly, and then, after about 7 days, the lesion area was measured. In the case of phytophthora, the potato agar medium cultured with the phytophthora (Phytophthora capsici) was cut in the internal diameter size of 5 mm with a cork borer, and then inoculated to the leaves. After 7 days, the lesion area was observed. In the case of a bacterial rot, when Compounds 6, 89, 93, and 95 were sprayed on the pepper leaves, the bacterial rot was not found in the concentration of 1 or 10 ppm as compared with the non-treated group. […] The Suppression of lesion formation on the leaves when these compounds were drench-treated to the roots can be explained as it was resulted from that systemic disease resistance was induced in the whole plant. These test results are illustrated in the photographs of FIGS. 5 to 9.

pepper plant = assay: Overcoming cold weather-damage on pepper plant (2° C. for 1 day); type: in vivo; settings: then room temperature 3 days
Description: In order to confirm the immunity-activating effect of the compounds of the present invention, the plants were exposed at the temperature so that they could be artificially damaged from cold weather, and the growth and development were observed. After growing the plants for 6 weeks, the compounds were drenched or sprayed on the leaves and the plants were raised for 1 week. After the plants were exposed under a 2° C. growth room for 1 day, they were raised at room temperature for 3 days. The degrees of the growth and development of the plants were observed and the degrees of the damage from cold weather in the plant were determined. […] The test results are illustrated in the photographs of FIGS. 11 and 12.

[2] = test system: plant bacterial rot (Pectobacterium carotovorum SCC1); assay: Suppression of bacterial rot on pepper leaves (paper disc on cut leaves); type: in vivo; settings: sprayed on the pepper leaves, 1 or 10 ppm
Description: as §1

cucumber leaves = assay: Plant growth promotion, width of cucumber leaf; type: in vivo; settings: non-treated = 100.0 (92.1 mm), unit of the source corrected
Description: The active ingredients (Compounds 5 to 8, 14, and 15) were drenched to the leaves of a plant (pepper, potato, tomato, tobacco, cucumber, and Chinese cabbage), and then, after 7 days, the plant lengths were measured. Since then, the plant disease pathogen was inoculated, and then, after 3 to 5 days, the sizes of the plant leaves were measured and compared with the control group to obtain the relative growth degrees.

[3] = test system: tobacco bacterial rot (Pectobacterium carotovorum); assay: Suppression of tobacco bacterial rot; type: in vivo, Pectobacterium carotovorum SCC1
Method in brief: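 Test compounds at 1, 10 and 100 ppm (from 20% methanol stock) were applied to tobacco leaves; 7 days later plants were sprayed with Pectobacterium carotovorum SCC1 at 10^8 cfu/mL and kept 3 days at 30° C. Lesion area scored visually as 0–100%.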

[4] = test system: PR1, PR4, PR10, beta-1,3-glucanase, chitinase and peroxidase genes; assay: Expression of defense genes in pepper plant (RT-PCR) after compound treatment and pathogen inoculation; type: in vivo; settings: pepper seedling, compound treated and then P. carotovora or P. capsici treated, FIG. 1
Text: In order to testify the disease resistance expression in the case of treating the dipeptide derivative of the present invention to the seeding of pepper, PR-1, beta-1,3-glucanase, chitinase, PR4, peroxidase, and PR10 primer, and the seedling of pepper were used. The seedling of pepper was raised in a greenhouse for 4 weeks, Compounds were sprayed thereto in various concentrations, and then, after three or one week, phytophthora (Phytophthora capcisi) and the pathogen of a bacterial rot (Pectobacterium carotovorum) were respectively inoculated.
Since then, after 12, 24, and 48 hours, the respective pepper leaves were collected in an amount of 1 g, and then, stored at an ultralow temperature-room at […]. The stored plant leaves were pulverized along with liquid nitrogen, and then, […] was extracted by using a RNA extraction kit (Easy-Spin™IIP Total RNA Extraction Kit, Intron Biotechnology, Korea) and Ex Taq polymerase by Kishimoto et al. (2005) (Takara Biomedicals, Otsu, Japan). For amplification, 0.1 μg of cDNA, 10 pMol of each of forward and reverse primers, 250 nM of dNTPs, and 0.5 U of Ex Taq polymerase were added to 20 μl, of a buffer solution. PCR was performed at 94C and 58C in a thermal cycler (PTC-100, USA), and the products by PCR were analyzed under the condition of 1% agarose gel (in 0.5×TAE buffer) (80 V, 60 min). All the RT-PCR tests were repeated twice. […]

[5] = test system: GUS gene induced by PR-1α disease-resistance promoter; assay: PR-1a GUS activation on tobacco leaves (MUG fluorescence); type: in vivo, tobacco (Xanth-nc); settings: tobacco leaf injection, after three days
Description: After the tobacco (Xanth-nc) bound with GUS gene induced by PR-1α disease-resistance promoter was grown for 3 weeks, 100 μL of the diluted solution of Compound 74 was injected to second leaves with a syringe. After three days, the surrounding leaves were collected in an internal diameter size of 5 mm with a cork borer, the samples thus obtained were added to a 1.5 mL of an eppendorf tube, and 20 μL of GUS extraction buffer solution was further added, ground, and then centrifuged at 8000 G for 3 minutes to obtain supernatant. The same amount of 2 mM MUG (4-methyl umbellifryl-B-glucuronide) solution was added, reacted at 37° C. for 1 hour, and then 960 μL of stop buffer solution (0.2 M, Na2CO3 solution) was added to be 1 mL. Since then, the fluorescence was measured with a TKO 100 fluorometer (Hoefoer Scientific Instruments, USA). At this time, the fluorescence amount was calibrated using a MU (4-methyl umbellyferon) as a standard reagent, and the GUS activity was calculated using MU-mM/sample−10 mg/time. The results thus obtained are listed in the following Table 2 and illustrated in FIG. 2.

[6] = test system: anthracnose germ (Colletotrichum orbiculare); assay: Suppression of anthracnose on cucumber leaves by seed treatment; type: in vivo; settings: seeds treated at 100 ppm for 2 hours, spores sprayed after 3 weeks, read after 7 days, FIG. 4
Description: Compound 61 or Compound 74 were deposited on the seeds of cucumbers in the concentration of 100 ppm for 2 hours, and after 3 weeks, the spores of anthracnose germ (Colletotrichum orbiculare) were sprayed in the concentration of 10^5 spore/mL thereto, and then, after 7 days, the disease outbreak was investigated. The results thus obtained are illustrated in the photographs of FIG. 4.

Phytophthora capsici = assay: Suppression of phytophthora blight in pepper roots and leaves after drench inoculation; type: in vivo; settings: sprayed on leaves, roots drench-inoculated after 1 week, observed 7 days, FIG. 10
Text: The peppers were raised in the same method as Example 3, Compound 85 was sprayed on the leaves, and then after 1 week, the Phytophthora capsici swarm suspension was drench-inoculated. While observing for 7 days, the lesion formation on the leaves and roots were investigated. […] The test results of Compound 85 on suppressing the outbreak of phytophthora blight are illustrated in FIG. 10.

SMILES: COC(=O)C[C@H](NC(=O)OC(C)(C)C)C(=O)N[C@@H](Cc1ccccc1)C(=O)OC [Compound 90] (Boc-Asp(OMe)-Phe-OMe)
- Lesion outbreak rate ([1]; 0.1 ppm): 24 area %
- Lesion outbreak rate ([1]; 1.0 ppm): 7.2 area %
- Cold weather-damage (pepper plant; sprayed on the leaves): no damages observed

SMILES: COC(=O)CNC(=O)[C@@H](N)C(C)C [Compound 6] (H-Val-Gly-OMe)
- Bacterial rot on pepper leaves as compared with the non-treated group [2]: not found
- Width of cucumber leaf (relative value to the non-treated group) (cucumber leaves; 1.0 ppm): 114%
- Width of cucumber leaf (relative value to the non-treated group) (cucumber leaves; 10 ppm): 124%
- Width of cucumber leaf (relative value to the non-treated group) (cucumber leaves; 100 ppm): 123%
- Lesion outbreak rate ([3]; Table 3, tobacco, 1 ppm): 11%
- Lesion outbreak rate ([3]; Table 3, tobacco, 10 ppm): 2.1%
- Lesion outbreak rate ([3]; Table 3, tobacco, 100 ppm): 3.5%

SMILES: COC(=O)[C@H](Cc1ccccc1)NC(=O)[C@@H](N)CC(=O)O [Compound 89] (H-Asp-Phe-OMe)
- Expression of the genes of PR1, PR4, PR10, beta-1,3-glucanase, chitonase and peroxidase [4]: strongly expressed
- Bacterial rot on pepper leaves as compared with the non-treated group [2]: not found
- Effect on suppressing the outbreak of pepper phytophthora blight or bacterial rot as compared with the non-treated control group [1]: excellent
- Lesion formation, pepper phytophthora test [1]: no the lesion formations
- Effect on suppression of the outbreak of pepper phytophthora blight as compared with the control drug BTH ([1]; in vivo): excellent effect
- Lesion outbreak rate ([1]; 0.1 ppm): 9.3 area %
- Lesion outbreak rate ([1]; 1.0 ppm): 2.3 area %

SMILES: C=CCOC(=O)C[C@H](N)C(=O)N[C@@H](Cc1ccccc1)C(=O)OC [Compound 93] (H-Asp(OAll)-Phe-OMe)
- Bacterial rot on pepper leaves as compared with the non-treated group [2]: not found
- Effect on suppressing the outbreak of pepper phytophthora blight or bacterial rot as compared with the non-treated control group [1]: excellent
- Lesion outbreak rate ([1]; 0.1 ppm): 35 area %
- Lesion outbreak rate ([1]; 1.0 ppm): 23 area %
- Cold weather-damage (pepper plant; sprayed on the leaves): no damages observed

SMILES: CCOC(=O)C(C)NC(=O)C(NC(=O)OC(C)(C)C)C(C)CC (centres unmarked) [Compound 80]
- Expression of the genes of PR1, PR4, PR10, beta-1,3-glucanase, chitonase and peroxidase [4]: strongly expressed
- Lesion outbreak rate ([1]; 0.1 ppm): 14 area %
- Lesion outbreak rate ([1]; 1.0 ppm): 8.9 area %

SMILES: COC(=O)[C@H](C)NC(=O)CNC(=O)OC(C)(C)C [Compound 14] (Boc-Gly-Ala-OMe)
- Width of cucumber leaf (relative value to the non-treated group) (cucumber leaves; 1.0 ppm): 104%
- Width of cucumber leaf (relative value to the non-treated group) (cucumber leaves; 10 ppm): 103%
- Width of cucumber leaf (relative value to the non-treated group) (cucumber leaves; 100 ppm): 113%
- Lesion outbreak rate ([3]; Table 6, tobacco, 1 ppm): 50%
- Lesion outbreak rate ([3]; Table 6, tobacco, 10 ppm): 78%
- Lesion outbreak rate ([3]; Table 6, tobacco, 100 ppm): 35%

SMILES: COC(=O)C[C@H](N)C(=O)N[C@@H](Cc1ccccc1)C(=O)OC [Compound 91] (H-Asp(OMe)-Phe-OMe)
- Effect on suppressing the outbreak of pepper phytophthora blight or bacterial rot as compared with the non-treated control group [1]: excellent
- Lesion outbreak rate ([1]; 0.1 ppm): 14 area %
- Lesion outbreak rate ([1]; 1.0 ppm): 24 area %
- Cold weather-damage (pepper plant; sprayed on the leaves): no damages observed

SMILES: COC(=O)[C@H]1CCCN1C(=O)[C@H](CSC(c1ccccc1)(c1ccccc1)c1ccccc1)NC(=O)OC(C)(C)C [Compound 74] (Boc-Cys(Trt)-[dP]-OMe)
- PR1a GUS expression ([5]; 0.1 ppm): 7,800 nM MU/10 mg FW/1 hr
- PR1a GUS expression ([5]; 1.0 ppm): 15,000 nM MU/10 mg FW/1 hr
- PR1a GUS expression ([5]; 10.0 ppm): 420,000 nM MU/10 mg FW/1 hr
- PR1a GUS expression ([5]; 100.0 ppm): 860,000 nM MU/10 mg FW/1 hr
- Anthracnose on the leaves of cucumber as compared with the non-treated group [6]: hardly found
- Lesion outbreak rate ([3]; Table 6, tobacco, 1 ppm): 25%
- Lesion outbreak rate ([3]; Table 6, tobacco, 10 ppm): 34%
- Lesion outbreak rate ([3]; Table 6, tobacco, 100 ppm): 22%

SMILES: COC(=O)[C@@H]1CCCN1C(=O)[C@H](CSC(c1ccccc1)(c1ccccc1)c1ccccc1)NC(=O)OC(C)(C)C [Compound 61] (Boc-Cys(Trt)-Pro-OMe)
- Anthracnose on the leaves of cucumber as compared with the non-treated group [6]: hardly found
- Lesion outbreak rate ([3]; Table 5, tobacco, 10 ppm): 20%
- Lesion outbreak rate ([3]; Table 5, tobacco, 100 ppm): 16%

SMILES: COC(=O)[C@H](Cc1ccccc1)NC(=O)[C@@H](N)CC(=O)OCc1ccccc1 [Compound 95] (H-Asp(OBn)-Phe-OMe)
- Bacterial rot on pepper leaves as compared with the non-treated group [2]: not found
- Outbreak of the phytophthora blight on the leaves ([1]; drench-treated to the roots): significantly decreased
- Lesion formation, pepper phytophthora test [1]: no the lesion formations
- Lesion outbreak rate ([1]; 0.1 ppm): 9.2 area %
- Lesion outbreak rate ([1]; 1.0 ppm): 3.8 area %
- Cold weather-damage (pepper plant; drench-treated): no cold weather-damages
- Cold weather-damage (pepper plant; sprayed on the leaves): no damages observed

SMILES: CCC(C)C(NC(=O)OC(C)(C)C)C(=O)N1CCCC1C(=O)OC (stereo not drawn) [Compound 85] (Boc-Ile-Pro-OMe; configuration not given here)
- Lesion outbreak rate ([1]; 0.1 ppm): 24 area %
- Lesion outbreak rate ([1]; 1.0 ppm): 15 area %
- Phytophthora blight (lesion formation) on the leaves and roots as compared with the control group (Phytophthora capsici): significantly suppressed
